“Also recorded” adds a separate entry of the source.
Experiments:
[1] = tested on: spermidine/spermine N^1 -acetyltransferase (SSAT); experiment: SSAT induction in cultured human tumor cell lines in-vitro; format: cell-based; conditions: for SSAT induction (FIG. 5, words) / SSAT: 48 hours
Method: To illustrate this embodiment, three polyamine analogs comprising bis-ethyl spermine analogs were used to treat MALME-3 human melanoma cells cultured in-vitro, and MALME-3 cells implanted as human xenografts in the athymic nude mouse model (Bernacki et al., 1992, supra). For in-vitro treatment, MALME-3 cells were maintained as a monolayer culture growing in RPMI 1640 containing 2% N-2-hydroxy-piperazine-N^1 -ethanesulfonic acid/3-N-morpholinopropanesulfonic acid pH 7.4 as a buffer, 1 mM aminoguanidine as an inhibitor of serum oxidase, and 10% of a semidefined serum substitute. Cells were seeded at 2×10^5 cells/T-75 flask and incubated 24 hours before treatment with analogues. Following treatment with 10 μM of the respective bis-ethyl spermine analog, control and treated cultured cells were trypsinized, washed, and suspended for enzyme assays and cell number determinations.
In accordance with the above methods for assaying the induction of SSAT levels in tumor cell lines treated in-vitro and xenografts treated in-vivo, the induction pattern also correlates fairly well amongst different clonal lines of a particular tumor type. This can be illustrated with melanoma clonal lines LOX, SH-1, PANUT-3, and MALME-3.
In accordance with the above methods for assaying the induction of SSAT levels in tumor cell lines treated in-vitro and xenografts treated in-vivo, the induction pattern also correlates fairly well amongst carcinomas of solid organs. This can be illustrated with malignant clonal lines A121, A549, and HT29.
As mentioned previously, cells from malignant solid tumor respond to polyamine analog therapy heterotypically. SSAT induction and antitumor response may vary not only among the solid tumor tissue type, but also with the clonal line of tumor of a particular solid tissue type. However, a correlation between the level of induction of SSAT and the potency of antitumor response has been observed in tumors of a particular solid tissue type. For example, seven human melanoma cell lines were assayed in-vitro for their response, as determined by cell growth and level of SSAT induction, to 10 μM BESPM at 48 hours post-treatment. As summarized in FIG. 5, growth among the cell lines decreases as SSAT induction increases.
To illustrate this embodiment, LOX and MALME-3 cell cultures were treated for 48 hours with 10 μm BESPM. The cells from each culture were harvested and assayed for SSAT activity. Media samples were prepared by treating the samples with 50% trichloroacetic acid to give a final concentration of 10% and then centrifuged at 15,000×g for 10 minutes. The supernatant was then filtered through a 0.22-μm filter, extracted with several volumes of ether, lyophilized, and resuspended in 10% trichloroacetic acid. N^1 -acetylspermidine levels of cells and media samples were then measured by use of high-pressure liquid chromatography. […] Similarly, N^1 -acetylspermidine levels from MALME-3 control cells, media from control cell cultures, and treated MALME-3 cells contained minimal levels of N^1 -acetylspermidine.

[2] = tested on: MALME-3 human melanoma xenografts; experiment: antitumor response against MALME-3 human melanoma xenografts in mice; format: in vivo; conditions: for suppression of tumor growth after cessation of treatment: every 8 hours for 6 days, most effective dose; for % T/C (tumor growth suppression) / Regrowth Delay (time for median tumor volume to reach 200 mm^3): maximally tolerated dose
Method: b. Anticancer effects of polyamine analog therapy are determined by assessing the antiproliferative activity on the treated solid tumor by measuring one or more responses including tumor growth suppression, tumor regression, or repression of regrowth. Tumors were measured in three dimensions and tumor volume was calculated according to the formula:
[…] where 1 represents length; w--width; and h--height. Tumor sizes were monitored 2 times/week until the median volume (V=0.4(a^2 ×b) where a is the smaller of the two perpendicular tumor diameters). As an indication of drug toxicity, animal weights were also recorded at the time of tumor volume measurement. Statistical analyses were performed on mouse tumor size and weight parameters by using the Mann-Whitney test.
Tumor growth suppression was measured by plotting the mean tumor volume versus the number of days post-inoculation with polyamine analog (growth curve analyses). Suppression is determined by comparison with the growth of untreated tumors (%T/C). More specifically,: %T/C is (treated tumor volume minus pretreatment volume) divided by (control tumor volume minus pretreatment volume)×100. Typically this is measured either when the control tumor volume reaches 1000 mm^3, or at the last day of treatment.
Tumor regression is measured as a percentage representing the average percentage of decrease in tumor volume from the largest pretreatment volume value.
Repression of regrowth is represented as regrowth delay, determined as the number of days following cessation of treatment when median group tumor volume exceeds 200 mm^3 (an arbitrary indication of regrowth which was determined statistically).
For the in-vivo treatment, 10^7 cultured MALME-3 melanoma cells were injected subcutaneously into 20 gram female nude athymic mice. After four in-vivo passages, tumor was removed and 40-50 mm^3 fragments were selected for implantation into mice via subcutaneous trocar implantation. Mice developing palpable tumors of a similar size were divided into different treatment groups comprising mice per group. Following treatment of the mice with a dosage approaching the maximally tolerated dose of the respective bis-ethyl spermine analog, the tumor cells comprising the human xenograft were removed and assayed for SSAT induction. […] Also indicated in Table 1, the level of SSAT induction in-vivo by BESPM was less than 20 fold that of BEHSPM, and the level of SSAT induction in-vivo by BENSPM was about 6 fold greater than that of BESPM. Thus, a conclusion from the results depicted in Table 1 is the rank order in effectiveness of the his-ethyl spermine analogs to induce SSAT levels in-vitro correlated well with their effectiveness to induce SSAT levels in-vivo.
The in-vivo antitumor activities of BESPM, BEHSPM, and BENSPM, were compared against various human xenografts in nude athymic mice. Cultured human tumor cells were first passaged several times in female HSD nude athymic mice. Fragments of resultant tumor were implanted into mice via subcutaneous trocar implantation. Mice of different treatment groups were treated with one or more of the three bis-ethyl spermine analogs BESPM, BEHSPM, and BENSPM. Anti-proliferative activity was monitored by antitumor responses including tumor growth suppression, tumor regression, or repression of regrowth.
As illustrated in Table 1 with MALME-3 human melanoma cells, the rank order effectiveness of three polyamine analogs in inducing SSAT levels both in-vitro and in-vivo were BENSPM>BESPM>BEHSPM, with substantial differences in induction between them. The same three polyamine analogs were analyzed for their effectiveness in inducing a potent antitumor response in-vivo. Mice developing palpable tumors of a similar size were divided into different treatment groups comprising 5 mice per treatment group, and 10 control mice per treatment group. […]

[3] = tested on: ornithine decarboxylase (ODC); conditions: in-vitro; cited from earlier work
[4] = tested on: S-adenosylmethionine decarboxylase (SAMDC); conditions: in-vitro; cited from earlier work
[5] = MALME-3 xenograft, 40 mg/kg every 8 hours for 5 days

CCNCCCCNCCCCNCCCCNCC [BEHSPM, N^1,N^14 -bis(ethyl)homospermine]
SSAT induction in-vitro ([1]; MALME-3 cells, 10 μM analog): 1108 pmol/min/10^6 cells
suppression of tumor growth after cessation of treatment ([2]; MALME-3 xenograft): 18 days
% T/C (tumor growth suppression) ([2]; MALME-3 xenograft): 43%
Regrowth Delay (time for median tumor volume to reach 200 mm^3) ([2]; MALME-3 xenograft): 14 days
antitumor activity ([2]; MALME-3 xenografts): less effective than BESPM
ODC suppression [3]: similarly suppress ornithine and S-adenosyl-methionine decarboxylase levels
SAMDC suppression [4]: similarly suppress ornithine and S-adenosyl-methionine decarboxylase levels

CCNCCCNCCCNCCCNCC [BENSPM, N^1,N^11 -bis(ethyl)norspermine]
SSAT induction in-vitro ([1]; A121 ovarian, 10 μm BENSPM): 2,700 pmol/min/10^6 cells
SSAT induction in-vitro ([1]; A549 lung, 10 μm BENSPM): 22,755 pmol/min/10^6 cells
SSAT induction in-vitro ([1]; HT29 colon, 10 μm BENSPM): 3,640 pmol/min/10^6 cells
SSAT induction in-vitro relative to BESPM ([1]; MALME-3 cells, 10 μM): 5 to 6 fold
% T/C at 1 g ([2]; MALME-3M, BENSPM at 80 mg/kg): < 0%
Tumor Regression ([2]; MALME-3M, BENSPM at 80 mg/kg): Present
Regrowth Delay ([2]; MALME-3M, BENSPM at 80 mg/kg, dt 13 days): > 4.8 × dt
No Regrowth ([2]; MALME-3M, BENSPM at 80 mg/kg, for duration of experiment): 2/5
lack of regrowth (FIG. 6) [2, 5]: two mice examined of the remaining five mice treated
regrowth delay (FIG. 6) [2, 5]: significant regrowth delay
tumor regression (FIG. 6) [2, 5]: showed tumor regression
suppression of tumor growth after cessation of treatment ([2]; MALME-3 xenograft): 40 days
% T/C (tumor growth suppression) ([2]; MALME-3 xenograft): 10%
Regrowth Delay (time for median tumor volume to reach 200 mm^3) ([2]; MALME-3 xenograft): 37 days
antitumor activity ([2]; MALME-3 xenografts): most effective of the three
apparent curing of xenografts on retreatment ([2]; MALME-3 xenografts, retreatment 2 weeks later): about 20%
ODC suppression [3]: similarly suppress ornithine and S-adenosyl-methionine decarboxylase levels
SAMDC suppression [4]: similarly suppress ornithine and S-adenosyl-methionine decarboxylase levels

CCNCCCNCCCCNCCCNCC [BESPM, N^1,N^12-bis(ethyl)spermine]
SSAT induction (FIG. 5, words) ([1]; LOX and SH-1, 10 μM BESPM): lowest induction of SSAT levels
SSAT ([1]; LOX, 10 μM BESPM): 120 pmol/mg/min
SSAT induction in-vitro ([1]; LOX, 10 μm BESPM): 171 pmol/min/10^6 cells
SSAT ([1]; MALME-3, 10 μM BESPM): 12,405 pmol/mg/min
SSAT induction in-vitro ([1]; MALME-3, 10 μm BESPM (Table 2)): 19,520 pmol/min/10^6 cells
SSAT induction (FIG. 5, words) ([1]; MALME-3 and Ebey, 10 μM BESPM): highest SSAT activity
SSAT induction in-vitro relative to BEHSPM ([1]; MALME-3 cells, 10 μM): about 10 fold
SSAT induction in-vitro ([1]; PANUT-3, 10 μm BESPM): 10,343 pmol/min/10^6 cells
SSAT induction in-vitro ([1]; SH-1, 10 μm BESPM): 1100 pmol/min/10^6 cells
suppression of tumor growth after cessation of treatment ([2]; MALME-3 xenograft): 30 days
% T/C (tumor growth suppression) ([2]; MALME-3 xenograft): 34%
Regrowth Delay (time for median tumor volume to reach 200 mm^3) ([2]; MALME-3 xenograft): 27 days
antitumor activity ([2]; MALME-3 xenografts): significant antitumor activity
ODC suppression [3]: rapidly suppress ODC and SAMDC; also recorded: similarly suppress ornithine and S-adenosyl-methionine decarboxylase levels
SAMDC suppression [4]: rapidly suppress ODC and SAMDC; also recorded: similarly suppress ornithine and S-adenosyl-methionine decarboxylase levels

Reference: patent publication US5498522A, “Methods for the use of spermidine/spermine N^1 -acetyltransferase as a prognostic indicator and/or a tumor response marker” (priority 1993, dated 1996)
